Test results as given in patent US20240262842A1, “SMALL MOLECULE INHIBITORS OF KRAS G12C MUTANT” (Merck Sharp & Dohme LLC, priority 2021, published 2024).
Where two headings read alike, the source gives them in different places.

Tests used:
[1] = target: T1, interaction between GMPPNP-bound recombinant K-Ras4B G12C mutant protein and cRAF RAS-binding domain (cRAF-RBD) (Homo sapiens, UniProt P01116, G12C); assay: Inhibitory activity on interaction between KRAS G12C and cRAF (Alpha technology); conditions: GMPPNP-bound KRAS G12C incubated with compound 25° C. 1 hour, read-out: IC50
T1 construct: His-tag (N)
Outline: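 Alpha signal measured 1.5 h after adding cRAF-RBD (aa 50-132) and detection reagents to GMPPNP-bound KRAS G12C (aa 1-169) pretreated 1 h at 25° C with compound (pH 7.5 buffer). 0% inhibition = DMSO, 100% = GDP-loaded KRAS; IC50 by curve fit.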

[2] = tested on: MIA PaCa-2 cells; assay: Growth inhibition activity on KRAS-G12C mutant cell line (CellTiter-Glo 3D); type: cell-based, human; conditions: MIA PaCa-2, 3-day culture with compound
Outline: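 IC50 (nM) derived from inhibition of luminescence (CellTiter-Glo 3D) relative to compound-free wells. Cells were seeded in U-bottom plates, grown 1 day, then exposed to compound for 3 days at 37 °C with 0.2% final DMSO.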

[3] = Homo sapiens, MIA PaCa-2, 72 h, Table 3-1

| Compound | IC50 ([1]; Table 2-1) [nM] | IC50 [2, 3] [nM] | IC50 ([2]; Table 3-1) [nM] | IC50 ([1]; Table 2) [nM] | IC50 ([2]; Table 3) [nM] |
| --- | --- | --- | --- | --- | --- |
| COc1cc2c(nc(C)n2C)c2c1-c1cccn3c(C(=O)c4cc(F)c(NC(=O)/C=C/CNC5(C)CC5)c(F)c4)cc(c13)CCS2 [Example 225, (E)-N-(2,6-difluoro-4-(7-methoxy-9,10-dimethyl-13,14-dihydro-9H-imidazo[4″,5″:5′,6′]benzo-[1′,2′:2,3]thiocino[4,5,6-hi]indolizine-2-carbonyl)-phenyl)-4-((1-methyl-cyclopropyl)amino)but-2-enamide] | 10.1 | 7.18 | – | – | – |
| CN1CCc2cc(C(=O)c3cc(F)c(NC(=O)/C=C/CN4CCCC4)c(F)c3)n3cccc(c23)-c2c(C(F)(F)F)cc3c(ncn3C)c21 [Example 226, (E)-N-(4-(9,12-dimethyl-7-(trifluoromethyl)-9,12,13,14-tetrahydro-imidazo[4″,5″:5′,6′]benzo-[1′,2′:2,3]azocino[4,5,6-hi]indolizine-2-carbonyl)-2,6-difluorophenyl)-4-(pyrrolidin-1-yl)but-2-enamide] | 63.3 | 13.5 | – | – | – |
| CN1CCc2cc(C(=O)c3cc(F)c(NC(=O)/C=C/CN4CCC[C@H]4CO)c(F)c3)n3cccc(c23)-c2c(C(F)(F)F)cc3c(ncn3C)c21 [Example 227, (S,E)-N-(4-(9,12-dimeth-yl-7-(trifluoromethyl)-9,12,13,14-tetrahydro-imidazo[4″,5″:5′,6′]benzo-[1′,2′:2,3]azocino[4,5,6-hi]indolizine-2-carbonyl)-2,6-difluorophenyl)-4-(2-(hydroxymethyl)pyrrol-idin-1-yl)but-2-enamide] | 34 | 10.2 | – | – | – |
| Cn1cnc2c3c(c(C(F)(F)F)cc21)-c1cccn2c(C(=O)c4cc(F)c(NC(=O)/C=C/CN5CC6COC(C6)C5)c(F)c4)cc(c12)CCO3 (centres unmarked) [Example 228, (E)-4-(6-oxa-3-azabicyclo-[3.2.1]octan-3-yl)-N-(2,6-difluoro-4-(9-methyl-7-(trifluoromethyl)-13,14-dihydro-9H-imidazo-[4″,5″:5′,6′]benzo[1′,2′: 2,3]oxocino[4,5,6-hi]-indolizine-2-carbonyl)-phenyl)but-2-enamide] | 32.5 | 35.8 | – | – | – |
| Cn1cnc2c3c(c(C(F)(F)F)cc21)-c1cccn2c(C(=O)c4cc(F)c(NC(=O)/C=C/CN5CC6CC5CCO6)c(F)c4)cc(c12)CCO3 (centres unmarked) [Example 229, (E)-4-(2-oxa-6-azabicyclo-[3.2.1]octan-6-yl)-N-(2,6-difluoro-4-(9-methyl-7-(trifluoromethyl)-13,14-dihydro-9H-imidazo-[4″,5″:5′,6′]benzo[1′,2′: 2,3]oxocino[4,5,6-hi]-indolizine-2-carbonyl)-phenyl)but-2-enamide] | 12.7 | 11.3 | – | – | – |
| Cn1cnc2c3c(c(C(F)(F)F)cc21)-c1cccn2c(C(=O)c4cc(F)c(NC(=O)/C=C/CN5CC6COCC5C6)c(F)c4)cc(c12)CCO3 (centres unmarked) [Example 230, (E)-4-(3-oxa-6-azabicyclo-[3.2.1]octan-6-yl)-N-(2,6-difluoro-4-(9-methyl-7-(trifluoromethyl)-13,14-dihydro-9H-imidazo-[4″,5″:5′,6′]benzo[1′,2′: 2,3]oxocino[4,5,6-hi]-indolizine-2-carbonyl)-phenyl)but-2-enamide] | 20.1 | 14.4 | – | – | – |
| CC1(NC/C=C/C(=O)Nc2c(F)cc(C(=O)c3cc4c5c(cccn35)-c3c(cc(N5CCOC5=O)cc3C(F)(F)F)OCC4)cc2F)CC1 [Example 232, (E)-N-(2,6-difluoro-4-(7-(2-oxooxazolidin-3-yl)-9-(trifluoromethyl)-3.4-dihydrobenzo[2,3]oxo-cino-[4,5,6-hi]indolizine-1-carbonyl)phenyl)-4-((1-methylcyclopropyl)amino)-but-2-enamide] | 49.7 | 18 | – | – | – |
| CC1(NC/C=C/C(=O)Nc2c(F)cc(C(=O)c3cc4c5c(cccn35)-c3c(cc(N5CCNC5=O)cc3C(F)(F)F)OCC4)cc2F)CC1 [Example 233, (E)-N-(2,6-difluoro-4-(7-(2-oxoimidazolidin-1-yl)-9-(trifluoromethyl)-3,4-dihydrobenzo[2,3]oxo-cino[4,5,6-hi]indolizine-1-carbonyl)phenyl)-4-((1-methylcyclopropyl)-amino)but-2-enamide] | 52.6 | 14 | – | – | – |
| Cn1cnc2c3c(c(C(F)(F)F)cc21)-c1cccn2c(C(=O)c4cc(F)c(NC(=O)/C=C/CN5CC6CCC5C6)c(F)c4)cc(c12)CCO3 (centres unmarked) [Example 234, (E)-4-(2-azabicyclo-[2.2.1]heptan-2-yl)-N-(2,6-difluoro-4-(9-meth-yl-7-(trifluoromethyl)-13,14-dihydro-9H-imidazo-[4″,5″:5′,6′]-benzo[1′,2′:2,3]oxocino-[4,5,6-hi]indolizine-2-carbonyl)phenyl)but-2-enamide] | 20.5 | 7.08 | – | – | – |
| Cn1cnc2c3c(c(C(F)(F)F)cc21)-c1cccn2c(C(=O)c4cc(F)c(NC(=O)/C=C/CN5C6CCCC5CC6)c(F)c4)cc(c12)CCO3 [Example 235, (E)-4-((1R,5S)-8-azabicyclo[3.2.1]octan-8-yl)-N-(2,6-difluoro-4-(9-methyl-7-(trifluoro-methyl)-13,14-dihydro-9H-imidazo[4″,5″:5′,6′]-benzo[1′,2′:2,3]oxocino-[4,5,6-hi]indolizine-2-carbonyl)phenyl)but-2-enamide] | 21.9 | 17 | – | – | – |
| Cn1cnc2c3c(c(C(F)(F)F)cc21)-c1cccn2c(C(=O)c4cc(F)c(NC(=O)/C=C/CN5C6CCC5CC6)c(F)c4)cc(c12)CCO3 [Example 236, (E)-4-(7-azabicyclo[2.2.1]-heptan-7-yl)-N-(2,6-difluoro-4-(9-methyl-7-(trifluoromethyl)-13,14-dihydro-9H-imidazo-[4″,5″:5′,6′]benzo[1′,2′: 2,3]oxocino[4,5,6-hi]-indolizine-2-carbonyl)-phenyl)but-2-enamide] | 16.5 | 4.03 | – | – | – |
| COCCn1c(C)nc2c3c(c(OC)cc21)-c1cccn2c(C(=O)c4cc(F)c(NC(=O)C=CCNC5(C)CC5)c(F)c4)cc(c12)CCS3 [Example 240, (E)-N-(2,6-difluoro-4-(7-methoxy-9-(2-methoxyethyl)-10-methyl-13,14-dihydro-9H-imidazo[4″,5″:5′,6′]benzo[1′,2′:2,3]thiocino[4,5,6-hi]indolizine-2-carbonyl)phenyl)-4-((1-methylcyclopropyl)amino)but-2-enamide] | 8.93 | 14.5 | – | – | – |
| COCCn1c(C)nc2c3c(c(OC)cc21)-c1cccn2c(C(=O)c4cc(F)c(NC(=O)/C=C/CNC5(C)CC5)c(F)c4)cc(c12)CC[S+]3[O-] (centres unmarked) [Example 241] | 31 | 877 | – | – | – |
| COCCn1c(COC)[n+]([O-])c2c3c(c(OC)cc21)-c1cccn2c(C(=O)c4cc(F)c(NC(=O)/C=C/CNC5(C)CC5)c(F)c4)cc(c12)CCN3C [Example 243, (E)-2-(3,5-difluoro-4-(4-((1-methylcyclopropyl)-amino)but-2-enamido)-benzoyl)-7-methoxy-9-(2-methoxyethyl)-10-(methoxymethyl)-12-methyl-9,12,13,14-tetra-hydroimidazo[4″,5″:5′,6′]-benzo[1′,2′:2,3]azocino-[4,5,6-hi]indolizine 11-oxide] | 83.2 | 91.8 | – | – | – |
| COc1cc2c(nc(C)n2C)c2c1-c1cccn3c(C(=O)c4cc(F)c(NC(=O)/C=C/CNC5(C)CCCC5)c(F)c4)cc(c13)CCN2C [Example 245, (E)-N-(2,6-difluoro-4-(7-methoxy-9,10,12-trimeth-yl-9,12,13,14-tetrahydro-imidazo[4″,5″:5′,6′]benzo-[1′,2′:2,3]azocino[4,5,6-hi]indolizine-2-carbonyl)-phenyl)-4-((1-methyl-cyclopentyl)amino)but-2-enamide] | 33.1 | 25.4 | – | – | – |
| COCCn1c(C)nc2c3c(c(OC)cc21)-c1cccn2c(C(=O)c4cc(F)c(NC(=O)/C=C/CNC5(C)CCCC5)c(F)c4)cc(c12)CCO3 [Example 246, (E)-N-(2,6-difluoro-4-(7-methoxy-9-(2-methoxyethyl)-10-methyl-13,14-dihydro-9H-imidazo[4″,5″:5′,6′]benzo[1′,2′:2,3]oxocino[4,5,6-hi]indolizine-2-carbonyl)phenyl)-4-((1-methylcyclopentyl)amino)but-2-enamide] | 13.6 | 17.2 | – | – | – |
| CN1CCc2cc(C(=O)c3cc(F)c(NC(=O)/C=C/CNC4(C)CSC4)c(F)c3)n3cccc(c23)-c2c(C(F)(F)F)cc3c(ncn3C)c21 [Example 249] | 27.5 | 28.6 | – | – | – |
| (E)-N-(2,6-difluoro-4-(10-(methoxymethyl)-9,13-dimethyl-12-oxo-7-(trifluoromethyl)-9,12,13,14-tetrahydroimidazo[4″,5″:3′,4′]benzo[1′,2′:6,7]azocino[5,4,3-hi]indolizine-2-carbonyl)phenyl)-4-((3-methyloxetan-3-yl)amino)but-2-enamide [Example 152] | 89.3 | – | 927 | – | – |
| (E)-N-(2,6-difluoro-4-((S)-6,8,9,12-tetramethyl-12,13-dihydro-8H-imidazo[4″,5″:3′,4′]benzo[1′,2′:7,8][1,4]oxazocino[6,5,4-hi]indole-2-carbonyl)pheny 1)-4-(((1,4r)-4-methoxycyclohexyl)amino)but-2-enamide [Example 20] | – | – | – | 24 | 49 |
